Patent publication US20230159445A1, “STAT INHIBITORY COMPOUNDS AND COMPOSITIONS” (JANPIX LIMITED, priority 2020, published 2023)

Key:
glutathione (GSH) = assay: Reactivity Profiling with Glutathione (GSH), half-life by HPLC; details: 5 mM glutathione (GSH) in IMDM with 10% FBS
Experimental: 3.5 μL of 5 mM stocking solution of the inhibitors in DMSO was added to 697.5 μL of Iscove's Modified Dulbecco's Medium (IMDM) supplemented with 10% FBS and antibiotic antimycotic solution, with 5 mM glutathione to afford a final concentration of 25 μM inhibitor with 0.5% DMSO. The solution was then immediately placed in the sample tray at 25° C. […] For each inhibitor, its peak is integrated at different time points and compared to the time zero injection in order to obtain a percentage remaining. Half-life is calculated according to a first order reaction kinetic taking into account those time points for which remaining percentage of inhibitor is above 40%, using the formula: t½=Ln(2)/k, where k is the slope of the linear plot of Ln[Inhibitor] vs time, according to the formula: Ln[A]=Ln[A]0−kt, where [A] is the value resulting from the integration at each time point, [A]0 the value at time zero, and t the time. For each inhibitor, both replicates are averaged and the resulting t½ reported.

MV4-11 cells = assay: MV4-11 Cell Cytotoxicity Assay (CellTiter-Blue, 72 h); format: cell-based, human; details: MV-4-11 cells
Summary of the method: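 Viability read-out: CellTiter-Blue, 1 h, fluorescence 560/590 nm. Preceded by 72 h exposure (37° C, 5% CO2) to twofold dilution series from 50 μM, triplicate, 0.5% DMSO vehicle, applied 24 h after plating.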

[1] = test system: normal human fibroblast (NHF) cells; assay: NHF Cell Cytotoxicity Assay (CellTiter-Blue, 72 h), off-target effects; format: cell-based; details: pooled NHF cells
Experimental: In some embodiments, the off-target effects of the compounds are evaluated in healthy human cells, such as in a normal human fibroblast (NHF) cell cytotoxicity assay.
Cell viability was examined following treatment at various concentrations of inhibitor (0.097656-50 μM) using a cell Titer-Blue cell viability assay. 1×10^4 normal human fibroblast cells per well were plated in 96-well assay plates in culture medium. All cells are grown in DMEM, IMDM and RPMI-1640 were supplemented with 10% FBS. After 24 hours, test compounds and vehicle controls are added to appropriate wells so the final volume was 100 μl in each well. The cells are cultured for the desired test exposure period (72 hours) at 37° C. and 5% CO2. The assay plates are removed from 37° C. incubator and 20 μL/well of CellTiter-Blue® Reagent is added. The plates are incubated using standard cell culture conditions for 1-4 hours and the plates are shaken for 10 seconds and record fluorescence at 560/590nm. For each sample well, value is normalized between the DMSO control and the highest concentration in case of plateau, and converted into a percentage. In the absence of plateau, minimum lecture is obtained from a different sample within the same experiment. For each concentration, the four replicates are averaged and standard deviation calculated. Data is fitted to a log(inhibitor) vs response curve with variable slope model using Microsoft Excel, obtaining IC50 and Hill slope variables.
A person skilled in the art would appreciate that a higher IC50 value in this NHF assay can indicate lower off-target effects.

COc1cc(C(=O)O)ccc1N(Cc1cc(C2CC2)cc(C(C)(C)C)c1)C(=O)CN(Cc1ccc(Cl)cc1)S(=O)(=O)c1c(F)c(F)c(F)c(F)c1F [Compound 1016, 4-(N-(3-(tert-butyl)-5-cyclopropylbenzyl)-2-(N-(4-chlorobenzyl)-(2,3,4,5,6-pentafluorophenyl)sulfon-amido)acetamido)-3-methoxybenzoic acid]
half-life at 25 μM (glutathione (GSH)): 4.12 to 9.23 h | IC50 (MV4-11 cells; Homo sapiens, MV4-11): 316 to 1000 nM | IC50 ([1]; Homo sapiens, Fibroblast): 20 to 30 µM

CN(C)c1cc(C(=O)O)ccc1N(Cc1cc(C2CC2)cc(C(C)(C)C)c1)C(=O)CN(Cc1ccc(Cl)cc1)S(=O)(=O)c1c(F)c(F)c(F)c(F)c1F [Compound 1041, 4-(N-(3-(tert-butyl)-5-cyclopropylbenzyl)-2-(N-(4-chlorobenzyl)-(2,3,4,5,6-pentafluorophenyl)sulfon-amido)acetamido)-3-(dimethylamino)benzoic acid]
half-life at 25 μM (glutathione (GSH)): 9.23 to 1670 h | IC50 (MV4-11 cells; Homo sapiens, MV4-11): 316 to 1000 nM | IC50 ([1]; Homo sapiens, Fibroblast): 20 to 30 µM

COc1cc(C(=O)O)ccc1N(Cc1cc(C2CC2)cc(C2CC2)c1)C(=O)CN(Cc1ncccc1C(F)(F)F)S(=O)(=O)c1c(F)c(F)c(F)c(F)c1F [Compound 1162, 4-(N-(3,5-dicyclopropylbenzyl)-2-(N-((3-(trifluoromethyl)pyridin-2-yl)methyl)-(2,3,4,5,6-pentafluoro-phenyl)sulfonamido)acetamido)-3-methoxybenzoic acid]
half-life at 25 μM (glutathione (GSH)): 2.37 to 4.12 h | IC50 ([1]; Homo sapiens, Fibroblast): 10 to 20 µM

O=C(O)c1ccc(N(Cc2cc(C3CC3)cc(N3CCCC3)c2)C(=O)CN(Cc2cnccc2C(F)(F)F)S(=O)(=O)c2c(F)c(F)c(F)c(F)c2F)c(OC2CC2)c1 [Compound 1190, 3-cyclopropoxy-4-(N-(3-cyclopropyl-5-(pyrrolidin-1-yl)benzyl)-2-(N-((4-(trifluoromethyl)pyridin-3-yl)methyl)-(2,3,4,5,6-pentafluoro-phenyl)sulfonamido)acetamido)benzoic acid]
half-life at 25 μM (glutathione (GSH)): 2.37 to 4.12 h | IC50 ([1]; Homo sapiens, Fibroblast): 0.001 to 10 µM

CC(C)(C)c1cc(CN(C(=O)CN(Cc2ccc(F)cc2Cl)S(=O)(=O)c2c(F)c(F)c(F)c(F)c2F)c2ccc(C(=O)O)cc2C2CC2)cc(C2CC2)c1 [Compound 1193, 4-(N-(3-(tert-butyl)-5-cyclopropylbenzyl)-2-(N-(2-chloro-4-fluorobenzyl)-(2,3,4,5,6-pentafluorophenyl)sulfon-amido)acetamido)-3-cyclopropylbenzoic acid]
IC50 (MV4-11 cells): 0.01 to 316 nM | IC50 [1]: 10 to 20 µM

Cc1cc(C(=O)O)cc(C)c1N(Cc1cc(C2CC2)cc(C2CC2)c1)C(=O)CN(Cc1c(F)c(F)c(F)c(F)c1F)S(=O)(=O)c1c(F)c(F)c(F)c(F)c1F [Compound 1204, 4-(N-(3,5-dicyclopropylbenzyl)-2-(N-((perfluorophenyl)methyl)-(2,3,4,5,6-pentafluoro-phenyl)sulfonamido)acetamido)-3,5-dimethylbenzoic acid]
IC50 (MV4-11 cells; Homo sapiens, MV4-11): 316 to 1000 nM | IC50 ([1]; Homo sapiens, Fibroblast): 0.001 to 10 µM

CN(C)c1cc(C(=O)O)ccc1N(Cc1cc(C2CC2)cc(N2CCCC2)c1)C(=O)CN(Cc1ccc(F)cc1Cl)S(=O)(=O)c1c(F)c(F)c(F)c(F)c1F [Compound 1212, 4-(2-(N-(2-chloro-4-fluorobenzyl)-(2,3,4,5,6-pentafluorophenyl)sulfon-amido)-N-(3-cyclopropyl-5-(pyrrolidin-1-yl)benzyl)acetamido)-3-(dimethylamino) benzoic acid]
IC50 (MV4-11 cells; Homo sapiens, MV4-11): 316 to 1000 nM | IC50 ([1]; Homo sapiens, Fibroblast): 10 to 20 µM

O=C(O)c1ccc(N(Cc2cc(C3CC3)cc(C3CC3)c2)C(=O)CN(Cc2ccc(F)cc2C(F)(F)F)S(=O)(=O)c2c(F)c(F)c(F)c(F)c2F)c(OC2CC2)c1 [Compound 1223, 3-cyclopropoxy-4-(N-(3,5-dicyclopropylbenzyl)-2-(N-(4-fluoro-2-(trifluoromethyl)benzyl)-(2,3,4,5,6-pentafluoro-phenyl)sulfonamido)acetamido)benzoic acid]
half-life at 25 μM (glutathione (GSH)): 4.12 to 9.23 h | IC50 ([1]; Homo sapiens, Fibroblast): 20 to 30 µM

O=C(O)c1ccc(N(Cc2cc(C3CC3)cc(C3CC3)c2)C(=O)CN(Cc2ccc(F)cc2Cl)S(=O)(=O)c2c(F)c(F)c(F)c(F)c2F)c(OC2CCOCC2)c1 [Compound 1230, 4-(2-(N-(2-chloro-4-fluorobenzyl)-(2,3,4,5,6-pentafluorophenyl)sulfon-amido)-N-(3,5-dicyclopropylbenzyl)acetamido)-3-((tetrahydro-2H-pyran-4-yl)oxy)benzoic acid]
half-life at 25 μM (glutathione (GSH)): 2.37 to 4.12 h | IC50 ([1]; Homo sapiens, Fibroblast): 0.001 to 10 µM

O=C(O)c1ccc(N(Cc2cc(C3CC3)cc(N3CCCC3)c2)C(=O)CN(Cc2ccc(F)cc2Cl)S(=O)(=O)c2c(F)c(F)c(F)c(F)c2F)c(OC2CCCC2)c1 [Compound 1239, 4-(2-(N-(2-chloro-4-fluorobenzyl)-(2,3,4,5,6-pentafluorophenyl)sulfon-amido)-N-(3-cyclopropyl-5-(pyrrolidin-1-yl)benzyl)acetamido)-3-(cyclopentyloxy)benzoic acid]
IC50 (MV4-11 cells; Homo sapiens, MV4-11): 0.01 to 316 nM | IC50 ([1]; Homo sapiens, Fibroblast): 20 to 30 µM

O=C(O)c1ccc(N(Cc2cc(C3CC3)cc(C3CC3)c2)C(=O)CN(Cc2ccc(F)cc2Cl)S(=O)(=O)c2c(F)c(F)c(F)c(F)c2F)c(N2CCCC2)c1 [Compound 1240, 4-(2-(N-(2-chloro-4-fluorobenzyl)-(2,3,4,5,6-pentafluorophenyl)sulfon-amido)-N-(3,5-dicyclopropylbenzyl)acetamido)-3-(pyrrolidin-1-yl)benzoic acid]
IC50 (MV4-11 cells; Homo sapiens, MV4-11): 0.01 to 316 nM | IC50 ([1]; Homo sapiens, Fibroblast): 10 to 20 µM

COCCOc1cc(C(=O)O)ccc1N(Cc1cc(C2CC2)cc(C2CC2)c1)C(=O)CN(Cc1ccc(F)cc1Cl)S(=O)(=O)c1c(F)c(F)c(F)c(F)c1F [Compound 1245, 4-(2-(N-(2-chloro-4-fluorobenzyl)-(2,3,4,5,6-pentafluorophenyl)sulfon-amido)-N-(3,5-dicyclopropylbenzyl)acetamido)-3-(2-methoxyethoxy)benzoic acid]
half-life at 25 μM (glutathione (GSH)): 2.37 to 4.12 h | IC50 ([1]; Homo sapiens, Fibroblast): 0.001 to 10 µM

O=C(O)c1ccc(N(Cc2nc(C3CC3)cc(C3CC3)n2)C(=O)CN(Cc2ccc(F)cc2Cl)S(=O)(=O)c2c(F)c(F)c(F)c(F)c2F)c(OC2CC2)c1 [Compound 1247, 4-(2-(N-(2-chloro-4-fluorobenzyl)-(2,3,4,5,6-pentafluorophenyl)sulfon-amido)-N-((4,6-dicyclopropylpyrimidin-2-yl)methyl)acetamido)-3-cyclopropoxybenzoic acid]
half-life at 25 μM (glutathione (GSH)): 2.37 to 4.12 h | IC50 ([1]; Homo sapiens, Fibroblast): 10 to 20 µM

CC(C)(C)c1cc(CN(C(=O)CN(Cc2ccc(F)cc2Cl)S(=O)(=O)c2c(F)c(F)c(F)c(F)c2F)c2ccc(C(=O)O)cc2O[C@H]2CCOC2)cc(C2CC2)c1 [Compound 1248, (S)-4-(N-(3-(tert-butyl)-5-cyclopropylbenzyl)-2-(N-(2-chloro-4-fluorobenzyl)-(2,3,4,5,6-pentafluorophenyl)sulfon-amido)acetamido)-3-((tetrahydrofuran-3-yl)oxy)benzoic acid]
half-life at 25 μM (glutathione (GSH)): 2.37 to 4.12 h | IC50 ([1]; Homo sapiens, Fibroblast): 0.001 to 10 µM

CC(C)(C)c1cc(CN(C(=O)CN(Cc2ccc(F)cc2Cl)S(=O)(=O)c2c(F)c(F)c(F)c(F)c2F)c2ccc(C(=O)O)cc2O[C@@H]2CCOC2)cc(C2CC2)c1 [Compound 1249, (R)-4-(N-(3-(tert-butyl)-5-cyclopropylbenzyl)-2-(N-(2-chloro-4-fluorobenzyl)-(2,3,4,5,6-pentafluorophenyl)sulfon-amido)acetamido)-3-((tetrahydrofuran-3-yl)oxy)benzoic acid]
half-life at 25 μM (glutathione (GSH)): 2.37 to 4.12 h | IC50 ([1]; Homo sapiens, Fibroblast): 10 to 20 µM

Cc1cc(C(=O)O)ccc1N(Cc1cc(C2CC2)cc(C(C)(C)C)c1)C(=O)CN(Cc1ccc(F)cc1Cl)S(=O)(=O)c1c(F)c(F)c(F)c(F)c1F [Compound 1250, 4-(N-(3-(tert-butyl)-5-cyclopropylbenzyl)-2-(N-(2-chloro-4-fluorobenzyl)-(2,3,4,5,6-pentafluorophenyl)sulfon-amido)acetamido)-3-methylbenzoic acid]
IC50 (MV4-11 cells; Homo sapiens, MV4-11): 0.01 to 316 nM | IC50 ([1]; Homo sapiens, Fibroblast): 0.001 to 10 µM

CC(C)COc1cc(C(=O)O)ccc1N(Cc1cc(C2CC2)cc(C2CC2)c1)C(=O)CN(Cc1ccc(F)cc1Cl)S(=O)(=O)c1c(F)c(F)c(F)c(F)c1F [Compound 1255, 4-(2-(N-(2-chloro-4-fluorobenzyl)-(2,3,4,5,6-pentafluorophenyl)sulfon-amido)-N-(3,5-dicyclopropylbenzyl)acetamido)-3-isobutoxybenzoic acid]
half-life at 25 μM (glutathione (GSH)): 9.23 to 1670 h | IC50 ([1]; Homo sapiens, Fibroblast): 10 to 20 µM

O=C(O)c1ccc(N(Cc2cc(C3CC3)cc(C3CC3)c2)C(=O)CN(Cc2ccc(F)cc2Cl)S(=O)(=O)c2c(F)c(F)c(F)c(F)c2F)c(OCC2COC2)c1 [Compound 1257, 4-(2-(N-(2-chloro-4-fluorobenzyl)-(2,3,4,5,6-pentafluorophenyl)sulfon-amido)-N-(3,5-dicyclopropylbenzyl)acetamido)-3-(oxetan-3-ylmethoxy)benzoic acid]
half-life at 25 μM (glutathione (GSH)): 0.00167 to 2.37 h | IC50 ([1]; Homo sapiens, Fibroblast): 10 to 20 µM

CCOc1cc(C(=O)O)ccc1N(Cc1cc(C2CC2)cc(C2CC2)c1)C(=O)CN(Cc1ccc(F)cc1C#N)S(=O)(=O)c1c(F)c(F)c(F)c(F)c1F [Compound 1275, 4-(2-((N-(2-cyano-4-fluorobenzyl)-2,3,4,5,6-pentafluorophenyl)sulfonamido)-N-(3,5-dicyclopropylbenzyl)acetamido)-3-ethoxybenzoic acid]
IC50 (MV4-11 cells; Homo sapiens, MV4-11): 0.01 to 316 nM | IC50 ([1]; Homo sapiens, Fibroblast): 0.001 to 10 µM
